Patent US20240132431A1, “METHOD FOR ALKYLATING ACIDIC FUNCTIONAL GROUP” (Chugai Seiyaku Kabushiki Kaisha, priority 2021, published 2024)

Target: T1, Bcl-2 protein (Recombinant Human Bcl-2 Protein) (Homo sapiens, UniProt P10415)
T1 construct: purchased Novus NBP2-34889
Assay: Binding evaluation of mixture library compounds to Bcl-2 using AS-MS (affinity selection mass spectrometry)
Outline: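 Bcl-2 binding is scored from LC/MS signal retained with protein through gel-filtration spin columns, normalised to unfiltered and protein-free controls. Incubation: 20 μM protein, […] per compound, 1 h, 23° C.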

T1 sequence (P10415 whole entry): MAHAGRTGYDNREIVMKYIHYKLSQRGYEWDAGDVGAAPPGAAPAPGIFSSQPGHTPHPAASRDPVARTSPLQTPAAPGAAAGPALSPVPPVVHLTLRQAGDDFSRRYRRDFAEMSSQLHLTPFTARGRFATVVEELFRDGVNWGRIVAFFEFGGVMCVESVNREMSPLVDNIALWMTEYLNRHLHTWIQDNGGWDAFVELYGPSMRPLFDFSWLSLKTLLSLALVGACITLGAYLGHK

Structure (SMILES) | ASMS ratio (%) (n = 1) | ASMS ratio (%) (n = 2)
CCOc1cccc(-c2cc(C(=O)N3CCN(c4ccc(C(=O)NS(=O)(=O)c5ccc(NCCSc6ccccc6)c(C(F)(F)F)c5)cc4)CC3)cc(C(F)(F)F)c2)c1 [B2R039-01, 4-[4-[3-(3-Ethoxyphenyl)-5-(trifluoromethyl)benzoyl]piperazin-1-yl]-N-[4-(2-phenylsulfanylethylamino)-3-(trifluoromethyl)phenyl]sulfonylbenzamide] | 9.7 | −4.8
CCOc1cncc(-c2cc(C(=O)N3CCN(c4ccc(C(=O)NS(=O)(=O)c5ccc(NCCSc6ccccc6)c(C(F)(F)F)c5)cc4)CC3)cc(C(F)(F)F)c2)c1 [B2R040-01, 4-[4-[3-(5-Ethoxypyridin-3-yl)-5-(trifluoromethyl)benzoyl]piperazin-1-yl]-N-[4-(2-phenylsulfanylethylamino)-3-(trifluoromethyl)phenyl]sulfonylbenzamide] | 2.6 | 0.2
CCOc1cccc(C#Cc2cc(C(=O)N3CCN(c4ccc(C(=O)NS(=O)(=O)c5ccc(NCCSc6ccccc6)c(C(F)(F)F)c5)cc4)CC3)cc(C(F)(F)F)c2)c1 [B2R041-01, 4-[4-[3-[2-(3-Ethoxyphenyl)ethynyl]-5-(trifluoromethyl)benzoyl]piperazin-1-yl]-N-[4-(2-phenylsulfanylethylamino)-3-(trifluoromethyl)phenyl]sulfonylbenzamide] | 18.0 | 0.0
CCOc1cncc(C#Cc2cc(C(=O)N3CCN(c4ccc(C(=O)NS(=O)(=O)c5ccc(NCCSc6ccccc6)c(C(F)(F)F)c5)cc4)CC3)cc(C(F)(F)F)c2)c1 [B2R042-01, 4-[4-[3-[2-(5-Ethoxypyridin-3-yl)ethynyl]-5-(trifluoromethyl)benzoyl]piperazin-1-yl]-N-[4-(2-phenylsulfanylethylamino)-3-(trifluoromethyl)phenyl]sulfonylbenzamide] | 3.4 | 6.0
CCOc1cccc(-c2cnn(-c3cc(C(=O)N4CCN(c5ccc(C(=O)NS(=O)(=O)c6ccc(NCCSc7ccccc7)c(C(F)(F)F)c6)cc5)CC4)cc(C(F)(F)F)c3)c2)c1 [B2R043-01, 4-[4-[3-[4-(3-Ethoxyphenyl)pyrazol-1-yl]-5-(trifluoromethyl)benzoyl]piperazin-1-yl]-N-[4-(2-phenylsulfanylethylamino)-3-(trifluoromethyl)phenyl]sulfonylbenzamide] | 3.4 | −9.0
CCOc1cncc(-c2cnn(-c3cc(C(=O)N4CCN(c5ccc(C(=O)NS(=O)(=O)c6ccc(NCCSc7ccccc7)c(C(F)(F)F)c6)cc5)CC4)cc(C(F)(F)F)c3)c2)c1 [B2R044-01, 4-[4-[3-[4-(5-Ethoxypyridin-3-yl)pyrazol-1-yl]-5-(trifluoromethyl)benzoyl]piperazin-1-yl]-N-[4-(2-phenylsulfanylethylamino)-3-(trifluoromethyl)phenyl]sulfonylbenzamide] | −3.7 | −4.1
CCOc1cccc(-c2ccc(CN3CCN(c4ccc(C(=O)NS(=O)(=O)c5ccc(NCCSc6ccccc6)c(C(F)(F)F)c5)cc4)CC3)cc2C)c1 [B2R047-01, 4-[4-[[4-(3-Ethoxyphenyl)-3-methylphenyl]methyl]piperazin-1-yl]-N-[4-(2-phenylsulfanylethylamino)-3-(trifluoromethyl)phenyl]sulfonylbenzamide] | 6.6 | −7.8
CCOc1cncc(-c2ccc(CN3CCN(c4ccc(C(=O)NS(=O)(=O)c5ccc(NCCSc6ccccc6)c(C(F)(F)F)c5)cc4)CC3)cc2C)c1 [B2R048-01] | 9.2 | 7.5
CCOc1cccc(-c2ccc(CN3CCN(c4ccc(C(=O)NS(=O)(=O)c5ccc(NCCSc6ccccc6)c(C(F)(F)F)c5)cc4)CC3)c(CC)c2)c1 [B2R049-01, 4-[4-[[4-(3-Ethoxyphenyl)-2-ethylphenyl]methyl]piperazin-1-yl]-N-[4-(2-phenylsulfanylethylamino)-3-(trifluoromethyl)phenyl]sulfonylbenzamide] | 7.5 | −5.5
CCOc1cncc(-c2ccc(CN3CCN(c4ccc(C(=O)NS(=O)(=O)c5ccc(NCCSc6ccccc6)c(C(F)(F)F)c5)cc4)CC3)c(CC)c2)c1 [B2R050-01, 4-[4-[[4-(5-Ethoxypyridin-3-yl)-2-ethylphenyl]methyl]piperazin-1-yl]-N-[4-(2-phenylsulfanylethylamino)-3-(trifluoromethyl)phenyl]sulfonylbenzamide] | 0.0 | 0.0
CCOc1cccc(-c2ccc(CN3CCN(c4ccc(C(=O)NS(=O)(=O)c5ccc(NCCSc6ccccc6)c(C(F)(F)F)c5)cc4)CC3)cc2F)c1 [B2R051-01, 4-[4-[[4-(3-Ethoxyphenyl)-3-fluorophenyl]methyl]piperazin-1-yl]-N-[4-(2-phenylsulfanylethylamino)-3-(trifluoromethyl)phenyl]sulfonylbenzamide] | 12.7 | −1.8
CCOc1cncc(-c2ccc(CN3CCN(c4ccc(C(=O)NS(=O)(=O)c5ccc(NCCSc6ccccc6)c(C(F)(F)F)c5)cc4)CC3)cc2F)c1 [B2R052-01, 4-[4-[[4-(5-Ethoxypyridin-3-yl)-3-fluorophenyl]methyl]piperazin-1-yl]-N-[4-(2-phenylsulfanylethylamino)-3-(trifluoromethyl)phenyl]sulfonylbenzamide] | 0.0 | −7.4
CCOc1cccc(-c2ccc(CN3CCN(c4ccc(C(=O)NS(=O)(=O)c5ccc(NCCSc6ccccc6)c(C(F)(F)F)c5)cc4)CC3)c(OC)c2)c1 [B2R053-01, 4-[4-[[4-(3-Ethoxyphenyl)-2-methoxyphenyl]methyl]piperazin-1-yl]-N-[4-(2-phenylsulfanylethylamino)-3-(trifluoromethyl)phenyl]sulfonylbenzamide] | −15.0 | 0.0
CCOc1cncc(-c2ccc(CN3CCN(c4ccc(C(=O)NS(=O)(=O)c5ccc(NCCSc6ccccc6)c(C(F)(F)F)c5)cc4)CC3)c(OC)c2)c1 [B2R054-01, 4-[4-[[4-(5-Ethoxypyridin-3-yl)-2-methoxyphenyl]methyl]piperazin-1-yl]-N-[4-(2-phenylsulfanylethylamino)-3-(trifluoromethyl)phenyl]sulfonylbenzamide] | 3.3 | −0.8
CCOc1cccc(-c2cc(CN3CCN(c4ccc(C(=O)NS(=O)(=O)c5ccc(NCCSc6ccccc6)c(C(F)(F)F)c5)cc4)CC3)cc(OCC)c2)c1 [B2R055-01, 4-[4-[[3-Ethoxy-5-(3-ethoxyphenyl)phenyl]methyl]piperazin-1-yl]-N-[4-(2-phenylsulfanylethylamino)-3-(trifluoromethyl)phenyl]sulfonylbenzamide] | −3.3 | 6.3

Continued, values first:

ASMS ratio (%) (n = 1) | ASMS ratio (%) (n = 2) | Structure (SMILES)
– | −63.9 | CCOc1cncc(-c2cc(CN3CCN(c4ccc(C(=O)NS(=O)(=O)c5ccc(NCCSc6ccccc6)c(C(F)(F)F)c5)cc4)CC3)cc(OCC)c2)c1 [B2R056-01, 4-[4-[[3-Ethoxy-5-(5-ethoxypyridin-3-yl)phenyl]methyl]piperazin-1-yl]-N-[4-(2-phenylsulfanylethylamino)-3-(trifluoromethyl)phenyl]sulfonylbenzamide]
5.7 | −5.1 | CCOc1cccc(-c2cc(CN3CCN(c4ccc(C(=O)NS(=O)(=O)c5ccc(NCCSc6ccccc6)c(C(F)(F)F)c5)cc4)CC3)cc(OC(C)C)c2)c1 [B2R057-01, 4-[4-[[3-(3-Ethoxyphenyl)-5-propan-2-yloxyphenyl]methyl]piperazin-1-yl]-N-[4-(2-phenylsulfanylethylamino)-3-(trifluoromethyl)phenyl]sulfonylbenzamide]
13.0 | 4.8 | CCOc1cncc(-c2cc(CN3CCN(c4ccc(C(=O)NS(=O)(=O)c5ccc(NCCSc6ccccc6)c(C(F)(F)F)c5)cc4)CC3)cc(OC(C)C)c2)c1 [B2R058-01, 4-[4-[[3-(5-Ethoxypyridin-3-yl)-5-propan-2-yloxyphenyl]methyl]piperazin-1-yl]-N-[4-(2-phenylsulfanylethylamino)-3-(trifluoromethyl)phenyl]sulfonylbenzamide]
0.0 | 0.0 | CCOc1cccc(-c2cc(OC)c(CN3CCN(c4ccc(C(=O)NS(=O)(=O)c5ccc(NCCSc6ccccc6)c(C(F)(F)F)c5)cc4)CC3)c(OC)c2)c1 [B2R059-01, 4-[4-[[4-(3-Ethoxyphenyl)-2,6-dimethoxyphenyl]methyl]piperazin-1-yl]-N-[4-(2-phenylsulfanylethylamino)-3-(trifluoromethyl)phenyl]sulfonylbenzamide]
3.9 | 0.0 | CCOc1cncc(-c2cc(OC)c(CN3CCN(c4ccc(C(=O)NS(=O)(=O)c5ccc(NCCSc6ccccc6)c(C(F)(F)F)c5)cc4)CC3)c(OC)c2)c1 [B2R060-01, 4-[4-[[4-(5-Ethoxypyridin-3-yl)-2,6-dimethoxyphenyl]methyl]piperazin-1-yl]-N-[4-(2-phenylsulfanylethylamino)-3-(trifluoromethyl)phenyl]sulfonylbenzamide]
9.1 | −6.0 | CCOc1cccc(-c2cc(CN3CCN(c4ccc(C(=O)NS(=O)(=O)c5ccc(NCCSc6ccccc6)c(C(F)(F)F)c5)cc4)CC3)cc(C(F)(F)F)c2)c1 [B2R061-01, 4-[4-[[3-(3-Ethoxyphenyl)-5-(trifluoromethyl)phenyl]methyl]piperazin-1-yl]-N-[4-(2-phenylsulfanylethylamino)-3-(trifluoromethyl)phenyl]sulfonylbenzamide]
0.0 | 0.0 | CCOc1cncc(-c2cc(CN3CCN(c4ccc(C(=O)NS(=O)(=O)c5ccc(NCCSc6ccccc6)c(C(F)(F)F)c5)cc4)CC3)cc(C(F)(F)F)c2)c1 [B2R062-01, 4-[4-[[3-(5-Ethoxypyridin-3-yl)-5-(trifluoromethyl)phenyl]methyl]piperazin-1-yl]-N-[4-(2-phenylsulfanylethylamino)-3-(trifluoromethyl)phenyl]sulfonylbenzamide]
